Counter-ions that a name gives are not always drawn.
Experiments:
Type in all cases: physicochemical
[1] = 5 mg/mL DI water dissolution experiment; set-up: key to dissolution state: P—Particulates partially dissolved; D—Particulates fully dissolved; settings: about 5 mg in 1 mL DI water, magnetic stirring
Description: Dissolution experiments were performed on KX2-391 salts to provide a better understanding of the salts interaction in water. This was accomplished using a 5 mg/mL DI water dissolution experiment where 5 mg of each salt was weighed into a vial and 1 mL of DI wather was added. The solution was monitored visually with magnetic stirring over a 20 minute time period to observe the time of dissolution.

[2] = Pressure and grinding studies
[3] = Slurry study (acetone, DI water); settings: Acetone slurry/RT, one and five days
Description: Slurry experiments were performed using acetone and DI water on KX2-391.MSA, Form A. Each vial was filled with approximately 30 mg of KX2-391.MSA, Form A and 0.5 and 1 mL of corresponding solvent, followed by stirring at room temperature for one and five days. The obtained solids were isolated by filtration, dried under vacuum at room temperature, and analyzed by HPLC and XRPD. The initial purity of KX2-391.MSA was 99.4%.

[4] = Stability studies, 2 weeks at elevated temperature and/or relative humidity; settings: for Form After 2 Weeks (XRPD): initial Form A; for Time to deliquescence: 95% RH, mesylate
Description: Stability studies were performed on KX2-391.MSA obtained in accordance with the process of the present invention (Example 4) using the conditions listed in Table 4 to determine the effects of exposure to elevated temperature and/or relative humidity on the crystalline form of KX2-391.MSA, Form A. After 2 weeks, the samples were analyzed by XRPD and HPLC to determine if any form change or degradation had occurred.

[5] = Slurry studies, 2 weeks at ambient conditions; settings: for Form After 2 Weeks (XRPD): initial Form A
From the text: After 2 weeks slurry at ambient conditions, the solids were isolated and analyzed by XRPD and HPLC. No additional forms were observed by XRPD.

[6] = Aqueous solubility study in buffers at 37° C.; settings: overnight at 37° C.; for solubility: thermodynamic from solid
Description: The solubility of KX2-391 mesylate, Form A was determined in SGF (pH 2), acetate buffer (pH 4.5), and phosphate buffer (pH 7.2). Slurries of KX2-391 mesylate in the buffer solution were allowed to equilibrate overnight at 37° C. The solids were then isolated and the supernatant was diluted and analyzed by HPLC. The response of the supernatant was then compared against a calibration curve to determine the solubility.

[7] = Humidity chamber hygroscopicity study (salt solution chambers, visual inspection); set-up: key to Observations/Time (hr): FF—Free flowing powder; D—Complete deliquescence of sample observed; CC—Colour change of sample observed; settings: for XRPD after humidity chamber (compared with XRPD pattern of sponsor lot) / HPLC Assay (% Area Purity) after humidity chamber: up to 120 hr; for HPLC Assay (% Area Purity) after humidity chamber: initial 99.4
Description: Further characterization of the hygroscopicity of the mesylate salt was performed using several humidity chambers to cover a range of humidity from 75, 88 to 95% RH. The 75, 88, and 95% RH chambers were prepared with NaCl, BaCl2.2H2O, and Na2HPO4.12 H2O respectively and were equilibrated for 48 hours prior to introducing the samples. Samples were placed into aluminum pans and monitored by visual inspection for up to five days. Table 3 summarizes the observations at 0, 3, 5, 24, 48, 72, 96 and 120 hour time points.
Moisture sorption studies conducted at ambient temperature utilizing salt solution humidity chambers were conducted to evaluate solid stability by visual inspection.

[8] = 40° C./75% RH, accelerated stability chamber
[9] = slurry in Dioxane:water (~0.9:0.1)

Q: With `O=C(Cc1ccc(-c2ccc(OCCN3CCOCC3)cc2)cn1)NCc1ccccc1` [KX2-391.MSA, 2-(5-(4-(2-morpholinoethoxy)phenyl)pyridine-2-yl)-N-benzylacetamide mesylate] as the compound, how does the dissolution state ([1]; 0 s) read?
A: P

Q: What about the dissolution state ([1]; 30 s) of the same compound?
A: P

Q: What about the dissolution state ([1]; 1 min) of the same compound?
A: D

Q: What about the “effect of physical stress on the crystalline form” value [2] of the same compound?
A: No change in crystalline form was observed

Q: What about the “XRPD of solid after slurry” value [3] of the same compound?
A: consistent with the pattern of the initial KX2-391.MSA, Form A

Q: What about the “HPLC purity after slurry” value ([3]; initial 99.4%) of the same compound?
A: 99.3%

Q: What about the “stability of crystalline form after exposure to the accelerated stability conditions” value ([4]; 2 weeks, conditions of Table 4) of the same compound?
A: stable crystalline form

Q: And the “HPLC Purity (AUC) after 2 weeks” value [4, 8]?
A: >99%

Q: What about the “Form After 2 Weeks (XRPD)” value [4, 8] of the same compound?
A: Form A

Q: And the “HPLC Purity (AUC) after 2 weeks” value ([4]; 51% RH, saturated salt chamber)?
A: >99%

Q: What about the “Form After 2 Weeks (XRPD)” value ([4]; 51% RH, saturated salt chamber) of the same compound?
A: Form A

Q: What about the “HPLC Purity (AUC) after 2 weeks” value ([4]; 60° C./ambient humidity, oven) of the same compound?
A: >99%

Q: What about the “Form After 2 Weeks (XRPD)” value ([4]; 60° C./ambient humidity, oven) of the same compound?
A: Form A

Q: And the “HPLC Purity (AUC) after 2 weeks” value ([4]; 75% RH, saturated salt chamber)?
A: >99%

Q: What about the “Form After 2 Weeks (XRPD)” value ([4]; 75% RH, saturated salt chamber) of the same compound?
A: Form A

Q: What about the “HPLC Purity (AUC) after 2 weeks” value ([4]; 88% RH, saturated salt chamber) of the same compound?
A: >99%

Q: And the “Form After 2 Weeks (XRPD)” value ([4]; 88% RH, saturated salt chamber)?
A: Form A

Q: And the Time to deliquescence ([4]; saturated salt chamber, listed as KX2-391-MSA)?
A: quesced <16 hrs

Q: What about the Time to deliquescence ([4]; saturated salt chamber) of the same compound?
A: less than 16 hrs

Q: What about the “HPLC Purity (AUC) after 2 weeks slurry” value ([5]; slurry in 1-butanol) of the same compound?
A: >99%

Q: And the “Form After 2 Weeks (XRPD)” value ([5]; slurry in 1-butanol)?
A: Form A

Q: And the “HPLC Purity (AUC) after 2 weeks slurry” value [5, 9]?
A: >99%

Q: And the “Form After 2 Weeks (XRPD)” value [5, 9]?
A: Form A

Q: What about the “HPLC Purity (AUC) after 2 weeks slurry” value ([5]; slurry in IPA) of the same compound?
A: >99%

Q: What about the “Form After 2 Weeks (XRPD)” value ([5]; slurry in IPA) of the same compound?
A: Form A

Q: And the “HPLC Purity (AUC) after 2 weeks slurry” value ([5]; slurry in MeCN)?
A: >99%

Q: What about the “Form After 2 Weeks (XRPD)” value ([5]; slurry in MeCN) of the same compound?
A: Form A

Q: And the “HPLC Purity (AUC) after 2 weeks slurry” value ([5]; slurry in THF:water (~0.9:0.1))?
A: >99%

Q: And the “Form After 2 Weeks (XRPD)” value ([5]; slurry in THF:water (~0.9:0.1))?
A: Form A

Q: What about the pH after slurry ([6]; SGF (pH 2.0)) of the same compound?
A: 4.5

Q: What about the pH after slurry ([6]; acetate (pH 4.5)) of the same compound?
A: 4.4

Q: And the solubility ([6]; acetate buffer, aqueous buffer, acetate (pH 4.5))?
A: 737 mg/mL

Q: What about the pH after slurry ([6]; phosphate (pH 7.2)) of the same compound?
A: 4.3

Q: And the solubility ([6]; phosphate buffer, aqueous buffer, phosphate (pH 7.2))?
A: 150 mg/mL

Q: And the solubility ([6]; simulated gastric fluid, SGF (pH 2.0))?
A: 700 mg/mL

Q: And the “Observations/Time (hr)” value ([7]; 75% RH (NaCl) chamber, 0 hr)?
A: FF

Q: And the “Observations/Time (hr)” value ([7]; 75% RH (NaCl) chamber, 3 hr)?
A: FF

Q: And the “Observations/Time (hr)” value ([7]; 75% RH (NaCl) chamber, 5 hr)?
A: FF

Q: And the “Observations/Time (hr)” value ([7]; 75% RH (NaCl) chamber, 24 hr)?
A: FF

Q: What about the “Observations/Time (hr)” value ([7]; 75% RH (NaCl) chamber, 48 hr) of the same compound?
A: FF

Q: And the “Observations/Time (hr)” value ([7]; 75% RH (NaCl) chamber, 72 hr)?
A: FF

Q: And the “Observations/Time (hr)” value ([7]; 75% RH (NaCl) chamber, 96 hr)?
A: FF

Q: And the “Observations/Time (hr)” value ([7]; 75% RH (NaCl) chamber, 120 hr)?
A: FF

Q: And the “XRPD after humidity chamber (compared with XRPD pattern of sponsor lot)” value ([7]; 75% RH (NaCl) chamber)?
A: Consistent

Q: And the “HPLC Assay (% Area Purity) after humidity chamber” value ([7]; 75% RH (NaCl) chamber)?
A: 99.4 % Area Purity

Q: What about the “stability in humidity chamber (deliquescence, decomposition by HPLC)” value ([7]; 75% RH, up to five days) of the same compound?
A: stable

Q: And the “Observations/Time (hr)” value ([7]; 88% RH (BaCl2•2H2O) chamber, 0 hr)?
A: FF

Q: What about the “Observations/Time (hr)” value ([7]; 88% RH (BaCl2•2H2O) chamber, 3 hr) of the same compound?
A: CC

Q: And the “Observations/Time (hr)” value ([7]; 88% RH (BaCl2•2H2O) chamber, 5 hr)?
A: CC

Q: And the “Observations/Time (hr)” value ([7]; 88% RH (BaCl2•2H2O) chamber, 24 hr)?
A: CC

Q: What about the “Observations/Time (hr)” value ([7]; 88% RH (BaCl2•2H2O) chamber, 48 hr) of the same compound?
A: CC

Q: What about the “Observations/Time (hr)” value ([7]; 88% RH (BaCl2•2H2O) chamber, 72 hr) of the same compound?
A: CC

Q: What about the “Observations/Time (hr)” value ([7]; 88% RH (BaCl2•2H2O) chamber, 96 hr) of the same compound?
A: CC

Q: And the “Observations/Time (hr)” value ([7]; 88% RH (BaCl2•2H2O) chamber, 120 hr)?
A: CC

Q: What about the “XRPD after humidity chamber (compared with XRPD pattern of sponsor lot)” value ([7]; 88% RH (BaCl2•2H2O) chamber) of the same compound?
A: Consistent

Q: What about the “HPLC Assay (% Area Purity) after humidity chamber” value ([7]; 88% RH (BaCl2•2H2O) chamber) of the same compound?
A: 89.3 % Area Purity

Q: What about the “colour of material after exposure” value ([7]; 88% RH, up to five days) of the same compound?
A: darker color yellow

Q: And the “degradation by HPLC” value ([7]; 88% RH, up to five days)?
A: roughly 10 % area

Q: What about the “deliquescence on exposure to high humidity” value ([7]; 95% RH) of the same compound?
A: deliquesce within three hours

Q: And the “Observations/Time (hr)” value ([7]; 95% RH (Na2HPO4•12H2O) chamber, 0 hr)?
A: FF

Q: And the “Observations/Time (hr)” value ([7]; 95% RH (Na2HPO4•12H2O) chamber, 3 hr)?
A: D

Q: And the “Observations/Time (hr)” value ([7]; 95% RH (Na2HPO4•12H2O) chamber, 5 hr)?
A: D

Q: What about the “Observations/Time (hr)” value ([7]; 95% RH (Na2HPO4•12H2O) chamber, 24 hr) of the same compound?
A: D

Q: And the “Observations/Time (hr)” value ([7]; 95% RH (Na2HPO4•12H2O) chamber, 48 hr)?
A: D

Q: What about the “Observations/Time (hr)” value ([7]; 95% RH (Na2HPO4•12H2O) chamber, 72 hr) of the same compound?
A: D

Q: And the “Observations/Time (hr)” value ([7]; 95% RH (Na2HPO4•12H2O) chamber, 96 hr)?
A: D

Q: And the “Observations/Time (hr)” value ([7]; 95% RH (Na2HPO4•12H2O) chamber, 120 hr)?
A: D

Source: patent US10323001B2, “Compositions for modulating a kinase cascade and methods of use thereof” (Athenex, Inc., priority 2006, dated 2019)
